Laboratory results published in ChEMBL document CHEMBL1781888, “Marianins A and B, prenylated phenylpropanoids from Mariannaea camptospora” (J Nat Prod, 2011).
In brackets after ≈: the same amount, converted by molar mass. Activity calls are given as the source filed them. The calls are words filed in the database; no cut-off is given here.

Experiments:
MCF7 = assay: Cytotoxicity against human MCF7 cells after 48 hrs by MTT assay; assay type: functional, cell-based; conditions: MCF7, 48 h
Candida albicans = assay: Antifungal activity against Candida albicans IFO1594 at 30 microg/mL; assay type: functional, organism-based
Escherichia coli = assay: Antibacterial activity against Escherichia coli NIH-JC2 at 30 microg/mL; assay type: functional, organism-based
Micrococcus luteus = assay: Antibacterial activity against Micrococcus luteus ATCC 9343; assay type: functional
HeLa = assay: Cytotoxicity against human HeLa cells after 48 hrs by MTT assay; assay type: functional, cell-based

| MIC (Micrococcus luteus) [µg/mL] | Compound | IC50 (MCF7) [µM] | inhibition (Candida albicans) | inhibition (Escherichia coli) | IC50 (HeLa) [µM] |
| --- | --- | --- | --- | --- | --- |
| 15 (≈ 45.7 µM) | CC(C)=CCOc1cc(C)c2c(OCC=C(C)C)cc(=O)oc2c1 [MARIANIN A] | 39 | inactive | inactive | 34 |
| 30 (≈ 99.2 µM) | C=CC(C)(C)CC(=O)c1c(C)cc(OCC=C(C)C)cc1O [MARIANIN B] | > 100 | inactive | inactive | > 100 |
